Experimental data as given in patent publication US6627621B2, “Neutrophil function inhibitors” (Dainichieseika Color & Chemicals Mfg. Co., Ltd., priority 2001, dated 2003).

Assays:
Type in all cases: cell-based, Guinea pig
[1] = tested on: neutrophils; test: Extracellular release of granular enzyme lysozyme from neutrophils; details: 0.01, 0.1 and 1 mM, 37° C. 20 minutes preincubation; OPZ (1:6) 30 minutes; FIG. 4
Description: A glycogen solution (0.17% glycogen-0.9% NaCl solution) was administered into the abdominal cavity of a Guinea pig. About 15 hours later, the abdominal cavity was washed with a 0.4% sodium citrate-0.9% NaCl solution to collect an exudate. The exudate contained neutrophils of 95% or higher purity. After the abdominal cavity exudate was washed twice with phosphate buffer (pH 7.4), the neutrophils were suspended in phosphate buffer (pH 7.4) to prepare a neutrophil suspension. Inhibiting effects of a glucosamine salt on neutrophil functions were investigated with respect to the generation of active oxygen, ingesting effect and extra-cellular releasing effect on granular components by methods to be described subsequently herein. Data are each shown as a mean ± standard deviation S.D. of three or more samples. Further, a test was conducted using an AVOVA. Glucosamine hydrochloride was added at 0.01 mM, 0.1 mM and 1 mM to aliquots of a neutrophil suspension (neutrophil concentration: 10^7 cells/mL), respectively, followed by incubation at 37° C. for 20 minutes. […] The reaction mixture was centrifuged, the supernatant was collected, and then, the activity of the granular enzyme, lysozyme, released to the outside of cells was measured by calorimetrically quantitating dissolution of Micrococcus lysodeikticus cells.

[2] = tested on: neutrophils; test: Emigrating ability of neutrophils (Boyden's chamber, C5a as emigrating factor); details: 0.01, 0.1 and 1 mM, 37° C. 20 minutes preincubation, 3 μm membrane, FIG. 5
Description: A glycogen solution (0.17% glycogen-0.9% NaCl solution) was administered into the abdominal cavity of a Guinea pig. About 15 hours later, the abdominal cavity was washed with a 0.4% sodium citrate-0.9% NaCl solution to collect an exudate. The exudate contained neutrophils of 95% or higher purity. After the abdominal cavity exudate was washed twice with phosphate buffer (pH 7.4), the neutrophils were suspended in phosphate buffer (pH 7.4) to prepare a neutrophil suspension. The emigrating ability of neutrophils was measured by using as an emigrating factor the component factor C5 a generated by reacting fresh serum with a yeast. Described specifically, glucosamine hydrochloride was added at 0.01 mM, 0.1 mM and 1 mM to aliquots of a neutrophil suspension (neutrophil concentration: 3×10^6 cells/mL), respectively, followed by incubation at 37° C. for 20 minutes. The reaction mixtures were separately placed in Boyden's chambers each of which was equipped with a nitrocellulose membrane of 3 μm in pore size, and were then incubated at 37° C. for 20 minutes. After the reaction, distances over which neutrophils had emigrated were measured under a microscope.

[3] = tested on: neutrophils; test: Ingesting ability of neutrophils (ingestion of opsonized zymosan, ingestion index); details: 0.01, 0.1 and 1 mM, 37° C. 20 minutes preincubation; OPZ (1:6) 30 minutes; FIG. 3
Description: A glycogen solution (0.17% glycogen-0.9% NaCl solution) was administered into the abdominal cavity of a Guinea pig. About 15 hours later, the abdominal cavity was washed with a 0.4% sodium citrate-0.9% NaCl solution to collect an exudate. The exudate contained neutrophils of 95% or higher purity. After the abdominal cavity exudate was washed twice with phosphate buffer (pH 7.4), the neutrophils were suspended in phosphate buffer (pH 7.4) to prepare a neutrophil suspension. Inhibiting effects of a glucosamine salt on neutrophil functions were investigated with respect to the generation of active oxygen, ingesting effect and extra-cellular releasing effect on granular components by methods to be described subsequently herein. Data are each shown as a mean ± standard deviation S.D. of three or more samples. Further, a test was conducted using an AVOVA. Glucosamine hydrochloride was added at 0.01 mM, 0.1 mM and 1 mM to aliquots of a neutrophil suspension (neutrophil concentration: 10^7 cells/mL), respectively, followed by incubation at 37° C. for 20 minutes. To each of the reaction mixtures, opsonized zymosan (OPZ; count ratio of OPZ to neutrophils: 1:6) was added, followed by a reaction for 30 minutes. The count of the yeast ingested by neutrophils was determined under a microscope, and was expressed in terms of an ingestion index.

[4] = tested on: neutrophils; test: Generation of active oxygen by neutrophils (cytochrome c reduction method); details: 0.01, 0.1 and 1 mM, 37° C. 20 minutes preincubation
Description: A glycogen solution (0.17% glycogen-0.9% NaCl solution) was administered into the abdominal cavity of a Guinea pig. About 15 hours later, the abdominal cavity was washed with a 0.4% sodium citrate-0.9% NaCl solution to collect an exudate. The exudate contained neutrophils of 95% or higher purity. After the abdominal cavity exudate was washed twice with phosphate buffer (pH 7.4), the neutrophils were suspended in phosphate buffer (pH 7.4) to prepare a neutrophil suspension.
Inhibiting effects of a glucosamine salt on neutrophil functions were investigated with respect to the generation of active oxygen, ingesting effect and extra-cellular releasing effect on granular components by methods to be described subsequently herein. Data are each shown as a mean ± standard deviation S.D. of three or more samples. Further, a test was conducted using an AVOVA.
Glucosamine hydrochloride was added at 0.01 mM, 0.1 mM and 1 mM to aliquots of a neutrophil suspension (neutrophil concentration: 10^6 cells/mL), respectively, followed by incubation at 37° C. for 20 minutes. To each of the reaction mixtures, N-formyl-1-methionyl-1-leucyl-1-phenylalanine (FMLP; 10^−7 M) or opsonized zymosan (OPZ; count ratio of OPZ to neutrophils: 1:6) was added as an emigrating factor to stimulate neutrophils for 30 minutes. Generated active oxygen was measured by the cytochrome c reduction method. […]

Q: For `Cl.N[C@H]1C(O)O[C@H](CO)[C@@H](O)[C@@H]1O` (some centres unmarked) [glucosamine hydrochloride, Glucosamine hydrochloride], which “extracellular release of the granular enzyme (lysozyme) from neutrophils by opsonized zymosan” value [1] is on record?
A: significantly inhibited

Q: And the “emigrating ability of neutrophils” value [2]?
A: inhibited in a concentration-dependent manner

Q: What about the “ingestion of opsonized zymosan by neutrophils” value [3] of the same molecule?
A: inhibited in a concentration-dependent manner

Q: And the “formation of active oxygen by FMLP” value ([4]; FMLP 10^-7 M stimulation 30 minutes, FIG. 1)?
A: inhibited in a concentration-dependent manner

Q: And the “formation of active oxygen by opsonized zymosan” value ([4]; OPZ (1:6) stimulation 30 minutes, FIG. 2)?
A: inhibited in a concentration-dependent manner
